Columns and labels:
CYP2C9 = CYP2C9 (Homo sapiens, UniProt P11712); experiment: CYP inhibition screening, CYP2C9; type: in vitro ADME
CYP1A2 = target: T1, CYP1A2 (Homo sapiens, UniProt P05177); experiment: CYP inhibition screening, CYP1A2; type: in vitro ADME
T1 sequence (P05177 1-516): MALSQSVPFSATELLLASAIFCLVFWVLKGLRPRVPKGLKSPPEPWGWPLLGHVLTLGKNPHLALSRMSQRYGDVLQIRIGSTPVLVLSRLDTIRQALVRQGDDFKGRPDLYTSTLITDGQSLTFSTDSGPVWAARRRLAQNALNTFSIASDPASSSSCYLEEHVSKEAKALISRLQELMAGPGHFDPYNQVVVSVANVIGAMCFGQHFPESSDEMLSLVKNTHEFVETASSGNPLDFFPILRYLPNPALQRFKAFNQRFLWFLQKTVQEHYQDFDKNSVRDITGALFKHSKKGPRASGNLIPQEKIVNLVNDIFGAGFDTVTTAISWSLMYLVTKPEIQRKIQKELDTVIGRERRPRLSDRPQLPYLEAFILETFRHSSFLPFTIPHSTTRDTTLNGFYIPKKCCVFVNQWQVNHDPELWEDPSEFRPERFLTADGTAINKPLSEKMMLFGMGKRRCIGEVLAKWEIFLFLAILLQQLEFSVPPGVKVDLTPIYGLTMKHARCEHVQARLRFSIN

AEP [1] = experiment: AEP activity in OGD-treated primary neurons; type: cell-based; settings: 0.1 μM or 1.0 μM compound, 5 μM Cbz-Ala-Ala-Asn-AMC
Procedure: (§1) A. AEP activity, measured in primary neuronal cultures with 5 μM Cbz-Ala-Ala-Asn-AMC (x-axis denotes neurons were treated with 0.1 μM or 1.0 μM specified compound). B. Caspase activity, measured in primary neuronal cultures with 5 μM Ac-Asp-Glu-Val-Asp-AMC. C. Cathepsin activity, measured in primary neuronal cultures with 5 μM D-Val-Leu-Lys-AMC. D. Inhibition of APP cleavage. Lysates of primary cortical neurons pre-incubated with compounds for 30 min, underwent OGD for 4 hrs, were reperfused for 18 hrs (normoxia neurons remained at normoxic conditions). E. APP can be cleaved in a dose-dependent manner. Lysates of primary cortical neurons pre-incubated with compounds for 30 min, underwent OGD for 4 hrs, were reperfused for 18 hrs (normoxia neurons remained at normoxic conditions).
(§2) Depriving cells of oxygen and glucose is a cellular model that is employed to trigger acidosis in cultured cells. The efficacy of the compounds in a cellular model of oxygen-glucose deprivation (OGD) was determined in an effort to mimic the effects of stroke in primary cultured neurons. As a result of depriving neurons of oxygen and glucose-containing medium, AEP activity was doubled (FIG. 7A, ‘DMSO-Norm’ compared to ‘DMSO-OGD’), while Caspase-3 and Cathepsin activities remained relatively unchanged. […]

Caspase-3 = experiment: Caspase activity in OGD-treated primary neurons; type: cell-based; settings: 5 μM Ac-Asp-Glu-Val-Asp-AMC
Procedure: as §1, §2

Cathepsin = Cathepsin activity in OGD-treated primary neurons; type: cell-based; settings: 5 μM D-Val-Leu-Lys-AMC
Procedure: as §1, §2

[2] = test system: amyloid precursor protein (APP) cleavage; experiment: APP cleavage in OGD-treated primary cortical neurons; type: cell-based
AEP [3] = target: T2, AEP (Homo sapiens, UniProt Q99538); experiment: DTT / L-cysteine reversibility of AEP inhibition; type: biochemical; settings: 10 mM DTT or L-cysteine added after 15 min
T2 construct: tested with purified active AEP, IC50 values for the top 8 candidates were found
T2 sequence (Q99538 18-323 limits assumed): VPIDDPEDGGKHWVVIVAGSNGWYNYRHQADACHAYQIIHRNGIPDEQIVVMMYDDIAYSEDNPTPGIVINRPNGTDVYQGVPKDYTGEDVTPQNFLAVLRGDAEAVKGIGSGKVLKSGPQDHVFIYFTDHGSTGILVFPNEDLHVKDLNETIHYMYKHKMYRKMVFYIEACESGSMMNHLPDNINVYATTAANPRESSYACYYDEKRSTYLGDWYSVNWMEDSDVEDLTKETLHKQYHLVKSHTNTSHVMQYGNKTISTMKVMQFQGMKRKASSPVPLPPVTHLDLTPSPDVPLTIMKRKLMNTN
Procedure: AEP was reacted with specified inhibitor, after 15 min 10 mM DTT or L-cysteine was added to the reaction and the fluorescent signal was read for an additional 15 min. At the end of the second 15 min incubation, the percentage of product formed in the presence of each compound was determined in comparison to the DMSO control reaction.
Although it is not intended that embodiments of this disclosure be limited by any particular mechanism, to gain additional insight into the mechanism utilized by the inhibitors for abrogation of AEP activity, their reversibility in the presence of free thiols was determined. The addition of a strong reducing agent, such as DTT, or a weaker reducing agent, L-cysteine, to an inhibited reaction can be used to out-compete the inhibitory agent and restore catalytic activity to an enzyme with an active-site thiol residue. Here, a similar approach was used by adding a reducing agent, either DTT or L-cysteine, to a reaction, in which AEP had been incubated with a specified inhibitor, in an attempt to reverse the effects of the inhibitor. […] For compounds BB1 and 38, this increase in enzymatic activity may be due to the reduction of a disulfide linkage between the inhibitor and the enzyme, since these compounds contain thiols. Compound 10 contains a thiocyanate and may undergoes nucleophilic attack by the enzyme's active-site thiolate to form a thioimidate enzyme-inhibitor complex. Under acidic conditions, this complex is reducible by either a strong reducing agent, such as DTT, or the weaker L-cysteine.

Chain of CYP2C9 (P11712 whole entry): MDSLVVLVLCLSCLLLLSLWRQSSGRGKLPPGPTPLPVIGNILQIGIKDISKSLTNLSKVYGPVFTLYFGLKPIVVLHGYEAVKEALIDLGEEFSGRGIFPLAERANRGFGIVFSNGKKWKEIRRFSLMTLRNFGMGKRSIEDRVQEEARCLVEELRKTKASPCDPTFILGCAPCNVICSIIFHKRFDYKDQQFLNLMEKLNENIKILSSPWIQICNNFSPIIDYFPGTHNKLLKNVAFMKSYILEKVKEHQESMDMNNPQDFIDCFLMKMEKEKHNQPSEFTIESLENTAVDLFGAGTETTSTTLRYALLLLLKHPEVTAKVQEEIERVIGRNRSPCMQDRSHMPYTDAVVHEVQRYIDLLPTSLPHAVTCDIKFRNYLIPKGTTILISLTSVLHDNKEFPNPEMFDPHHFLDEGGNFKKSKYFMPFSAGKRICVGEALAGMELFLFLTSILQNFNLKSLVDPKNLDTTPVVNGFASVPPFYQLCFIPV

Row | Structure (SMILES) | CYP2C9 inhibition (CYP2C9; 3 μM) [%] | CYP2C9 inhibition (CYP2C9; 10 μM) [%] | CYP1A2 inhibition (CYP1A2; 3 μM) [%] | CYP1A2 inhibition (CYP1A2; 10 μM) [%] | AEP activity in OGD neurons (AEP [1]) | decrease of Caspase-3 activity in OGD neurons (Caspase-3) | decrease of Cathepsin activity in OGD neurons (Cathepsin) | APP cleavage after OGD ([2]; 1 μM compound) | AEP activity after addition of reducing agent (reversibility) (AEP [3]) | APP cleavage after OGD ([2]; 0.1 μM compound)
1 | Nc1ccc(N2CCOCC2)c2nonc12 [Compound 11] | 4.3 | 5.6 | 13.1 | 37.0 | marked dose-dependent decrease | not observed | not observed | blocked |  | 
2 | Cn1c(=O)[nH]c(=O)c2c1nc(S)n2CC(O)COc1ccc(Cl)cc1 (centres unmarked) [Compound 38] | 15.6 | 17.1 | −7.6 | 10.5 |  |  |  |  | regained a substantial amount of activity | blocked

— US10759803B2, “Asparagine endopeptidase (AEP) inhibitors for managing cancer and compositions related thereto” (priority 2014, dated 2020)
